Results on four molecules are retold here after patent US12516062B2, “Agricultural or horticultural insecticide or animal ectoparasite or endoparasite control agent each comprising an imidazopyridazine compound having a substituted cyclopropane-oxadiazole group or a salt thereof as active ingredient, and method for using the insecticide or the control agent” (NIHON NOHYAKU CO., LTD., priority 2019, dated 2026).

Bounds are passed on as bounds.

What all share (type): in vivo
One test has as its system Laodelphax striatellus. Nature of the test: whole plant or invertebrate. The note with it: 192 h, rice seedlings dipped 30 seconds, 3rd-instar larvae, 8 days after inoculation, read-out: insecticidal efficacy (corrected mortality rate), activity level.
In the next test the test system is Plutella xylostella. Nature of the test: whole plant or invertebrate. To be noted: in Brassica rapa, 144 h, seedlings with laid eggs dipped about 30 seconds, 25° C., 6 days after dip treatment, read-out: insecticidal efficacy (corrected mortality rate), activity level.
Another test has as its system Haemonchus contortus. Description: Larval motility assay on Haemonchus contortus. The note with it: 96 h, L1 stage larvae, 4 days, relative to DMSO only, read-out: percent motility inhibition. Here is the method: Larval Motility Assay on Haemonchus contortus
DMSO diluted solutions of various compounds of the present invention were added at the final concentration of 50 ppm to the wells of a 96-well plate containing a predetermined conditioned medium. Twenty L1 stage larvae of H. contortus were introduced into each well of the 96-well plate. The plate was allowed to stand for 4 days, and then larval motility was examined. The percent motility inhibition in the wells of each treatment was calculated relative to the wells of treatment with DMSO only.

Another test relates to Dirofilaria immitis. Nature of the test: Larval motility assay on Dirofilaria immitis. The note with it: 72 h, read-out: percent motility inhibition. How it is done:
Larval Motility Assay on Dirofilaria immitis
Five hundred L1 stage larvae of D. immitis were diluted in a predetermined conditioned medium and introduced into each well of a 96-well plate. DMSO diluted solutions of various compounds of the present invention were added at the final concentration of 50 ppm to the wells of the 96-well plate. The plate was allowed to stand for 3 days, and then larval motility was examined. The percent motility inhibition in the wells of each treatment was calculated relative to the wells of treatment with DMSO only.

A further test relates to Rhipicephalus sanguineus. Description: Assay for transdermal parasiticidal activity against nymphs of Rhipicephalus sanguineus. To be noted: 48 h, read-out: mortality rate. The source says:
Assay for Transdermal Parasiticidal Activity Against Nymphs of Rhipicephalus sanguineus
DMSO diluted solutions of various compounds of the present invention were individually diluted to the final concentration of 100 ppm with an acetone/triton mixture and applied to the inside of vented sample bottles. After overnight drying, ten nymphs of R. sanguineus were introduced into each bottle, and the mortality rate was examined two days later. Aberrant adults were regarded as the dead.

Turning to `CCS(=O)(=O)c1cc(-c2noc(C3CC3C)n2)cnc1-c1nc2cc(C(F)(F)C(F)(F)F)nnc2n1C` (stereo not drawn) [Compound 1-1], the mortality at 500 ppm in the test on Laodelphax striatellus and with Plutella xylostella was 100% in each case. Moreover, the inhibition at 50 ppm in the test on Haemonchus contortus and in the test with Dirofilaria immitis was ≥ 50% each time.

`CCS(=O)(=O)c1cc(-c2noc(C3(C(F)(F)F)CC3)n2)cnc1-c1nc2cc(C(F)(F)C(F)(F)F)nnc2n1C` [Compound 1-2, 3-(5-(ethylsulfonyl)-6-(3-methyl-6-pentafluoroethyl-3[ ]-imidazo[4,5-c]pyridazin-2-yl)pyridin-3-yl)-5-(1-trifluoromethylcyclopropyl)-1,2,4-oxadiazole]: the mortality at 500 ppm with Laodelphax striatellus and in the test with Plutella xylostella was 100% in each case. For the same molecule, the inhibition at 50 ppm in the test on Haemonchus contortus and in the test on Dirofilaria immitis was ≥ 50% each time. In the test with Rhipicephalus sanguineus, the mortality (commonly the percentage killed) at 100 ppm was ≥ 50%.

Turning to `CCS(=O)(=O)c1cc(-c2noc(C3(c4ccccc4)CC3)n2)cnc1-c1nc2cc(C(F)(F)C(F)(F)F)nnc2n1C` [Compound 1-3], the mortality at 500 ppm with Laodelphax striatellus and in the test on Plutella xylostella was 100% in each case. The inhibition at 50 ppm in the test with Haemonchus contortus and in the test on Dirofilaria immitis was ≥ 50% in each case. Moreover, in the test on Rhipicephalus sanguineus, the mortality at 100 ppm was ≥ 50%.

As for `CCS(=O)(=O)c1cc(-c2noc(C3(C)CC3)n2)cnc1-c1nc2cc(C(F)(F)C(F)(F)F)nnc2n1C` [Compound 1-4], the mortality at 500 ppm in the test on Laodelphax striatellus and in the test with Plutella xylostella was 100% each time. The inhibition at 50 ppm in the test on Haemonchus contortus and with Dirofilaria immitis was ≥ 50% in each case.
